The values that follow come from patent US20100298420A1, “Compositions and Methods for Intracellular Delivery” (Yissum, Research Development Company of the Hebrew …, priority 2001, published 2010).

Holding throughout (type): cell-based
Experiment [1] has as its system Swiss albino mouse fibroblast cells (3T3). Description: CLSM experiment: intracellular delivery of fluorescent probes. The method, then:
Subconfluent Swiss albino mouse fibroblast cells (3T3) were grown in Dulbeco's Modified Eagles Medium (DMEM) on coverslips in wells of 3.5 cm in diameter for Confocal Laser Scanning Microscopy (CLSM) and in six-well plastic plates for flow cytometric analysis. The cells were washed twice with phosphate buffered saline (PBS), adjusted to 37° C. in the incubator, and washed again. Two ml of PBS were added to each well and 50 μl of the test solution was added (Compositions I-III, control systems A-B or any compositions containing PC*, RR or D-289 listed above). […] The coverslip were observed under a Sarastro-Phibos1000 CLS microscope equipped with a 488 nm argon ion laser beam and attached to a Universal Zeiss epifluorescence microscopy with an oil immerse Planapo 63×1.4 NA objective lens. Fluorescence emission was detected above 560 nm for RR, at 527 nm for D-289 and […] for calcein.

Experiment [2] has as its system Staphylococcus Aureus ATCC-29213. Nature of the experiment: Susceptibility testing, zone of inhibition on agar. As to conditions: 37° C., 24 h, in mm. As for the experimental part:
(§1) Various concentrations of erythromycin in sterile water (1.25, 7.5, 10, 12.5 μg/ml) The bacterial strains used were:
(§2) Each erythromycin concentration was mixed with Composition I, Composition II and Standard solution with phosphate buffer saline (PBS, Biological Industries, Beit HaEmek Israel 1:1 by volume. 20 μl of Compositions I-II and standards containing various antibiotic concentrations was added to 6 mm wells on Petri plates containing Tryptic Soy Agar (TSA) inoculated with the microorganisms. The preparation was incubated aerobically at 37° C. for 24 h. The zone of inhibition for each sample was measured.

The subject of experiment [3] is Staphylococcus Aureus erythromycin resistant (clinical strain). Description: Susceptibility testing, zone of inhibition on agar. To be noted: 37° C., 24 h. As for the experimental part: as §1, §2
The test system of experiment [4] is Bacillus Subtilis ATCC-6633. Nature of the experiment: Susceptibility testing, zone of inhibition on agar. To be noted: 37° C., 24 h. The method, then: as §1, §2
[5] abbreviates: Erythromycin conc. 10 microgram/ml.

A word on the zone of inhibition: it is the size of the clear area around the sample on an inoculated plate. High values mean a stronger effect on the plate, low ones a weaker effect on the plate.

`CCN(CC)c1ccc(C=Cc2cc[n+](C)cc2)cc1.[I-]` [Composition D-289, 4-(4-diethylamino)styryl-N-methylpyridinium iodode]: the “Fluorescence in the nucleus of the cell” value in experiment [1] is recorded as “fluorescence was also observed in the nucleus”.

For `CC[C@H]1OC(=O)[C@H](C)[C@@H](O[C@H]2C[C@@](C)(OC)[C@@H](O)[C@H](C)O2)[C@H](C)[C@@H](O[C@@H]2O[C@H](C)C[C@H](N(C)C)[C@H]2O)[C@](C)(O)C[C@@H](C)C(=O)[C@H](C)[C@@H](O)[C@]1(C)O` [Standard, Erythromycin], the Zone of inhibition in experiment [2] (Erythromycin conc. 1.25 microgram/ml) is given as 0; in experiment [2] (setting [5]) it was 13.67 ± 026. Besides, the zone of inhibition at 10 µg/mL in experiment [3] (setting [5]) came out at 0 mm. In addition, in experiment [3] (Erythromycin conc. 12.5 microgram/ml), the zone of inhibition at 12.5 µg/mL was found to be 7.67 ± 0.26 mm. Moreover, in experiment [4] (ATCC6633, Erythromycin conc. 1.25 microgram/ml), the zone of inhibition at 1.25 µg/mL came out at 7.83 ± 0.26 mm. In experiment [4] (ATCC6633, Erythromycin conc. 7.5 microgram/ml), this compound registered a zone of inhibition at 7.5 µg/mL of 13.6 ± 0.38 mm.
